According to ChEMBL document CHEMBL4177526, “Discovery and structure activity relationship of the first potent cryptosporidium FIKK kinase inhibitor” (Bioorg Med Chem, 2017):

What was measured:
[1] = molecular target: Ribosomal protein S6 kinase alpha-1 (Homo sapiens) (UniProt Q15418); assay: Inhibition of human RSK1 (1 to 735 residues) assessed as residual activity at 500 nM in presence of 33P-ATP by filter binding assay relative to control
[2] = molecular target: Aurora kinase A (Homo sapiens) (UniProt O14965); assay: Inhibition of human Aurora-A (2 to 403 residues) assessed as residual activity at 500 nM in presence of 33P-ATP by filter binding assay relative to control
Sequence of Aurora kinase A (Homo sapiens) (O14965 whole entry, the tested form may be a part): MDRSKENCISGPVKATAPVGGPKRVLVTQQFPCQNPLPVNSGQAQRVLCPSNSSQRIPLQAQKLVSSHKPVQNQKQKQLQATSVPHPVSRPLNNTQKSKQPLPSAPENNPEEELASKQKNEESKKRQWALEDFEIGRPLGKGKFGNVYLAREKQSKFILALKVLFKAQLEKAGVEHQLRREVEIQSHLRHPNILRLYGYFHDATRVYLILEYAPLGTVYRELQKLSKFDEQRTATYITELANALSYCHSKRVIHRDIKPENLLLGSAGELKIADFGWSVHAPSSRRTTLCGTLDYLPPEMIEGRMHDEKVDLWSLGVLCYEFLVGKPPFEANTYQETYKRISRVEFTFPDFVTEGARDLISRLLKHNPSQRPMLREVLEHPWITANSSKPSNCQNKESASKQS

[3] = molecular target: Mitogen-activated protein kinase 1 (Homo sapiens) (UniProt P28482); assay: Inhibition of human ERK2 (2 to 360 residues) assessed as residual activity at 500 nM in presence of 33P-ATP by filter binding assay relative to control
[4] = molecular target: Serine/threonine-protein kinase Pink1, mitochondrial (Tribolium castaneum) (UniProt D6WMX4); assay: Inhibition of Tribolium castaneum PINK1 (1 to 570 residues) assessed as residual activity at 500 nM in presence of 33P-ATP by scintillation counting method relative to control
Sequence of Serine/threonine-protein kinase Pink1, mitochondrial (Tribolium castaneum) (D6WMX4 whole entry, the tested form may be a part): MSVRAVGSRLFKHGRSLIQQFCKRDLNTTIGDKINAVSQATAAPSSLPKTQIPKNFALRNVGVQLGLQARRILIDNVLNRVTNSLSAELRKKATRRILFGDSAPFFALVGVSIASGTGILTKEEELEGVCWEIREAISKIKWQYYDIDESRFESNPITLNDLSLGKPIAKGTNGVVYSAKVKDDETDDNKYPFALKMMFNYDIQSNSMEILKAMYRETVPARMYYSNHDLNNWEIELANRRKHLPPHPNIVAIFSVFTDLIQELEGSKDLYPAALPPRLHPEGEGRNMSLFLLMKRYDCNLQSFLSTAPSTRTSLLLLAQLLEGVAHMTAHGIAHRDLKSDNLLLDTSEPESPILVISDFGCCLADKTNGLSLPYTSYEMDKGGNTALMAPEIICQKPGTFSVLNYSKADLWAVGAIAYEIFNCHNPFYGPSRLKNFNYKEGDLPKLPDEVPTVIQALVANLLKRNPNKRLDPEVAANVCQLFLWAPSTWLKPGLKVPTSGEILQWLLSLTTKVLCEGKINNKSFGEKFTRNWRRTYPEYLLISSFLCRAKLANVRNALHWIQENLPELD

[5] = molecular target: Tyrosine-protein kinase JAK2 (Homo sapiens) (UniProt O60674); assay: Inhibition of JAK2 (unknown origin) assessed as residual activity at 500 nM relative to control
[6] = molecular target: Ephrin type-B receptor 2 (Homo sapiens) (UniProt P29323); assay: Inhibition of human EPHB2 (560 to 987 residues) assessed as residual activity at 500 nM in presence of 33P-ATP by filter binding assay relative to control
Sequence of Ephrin type-B receptor 2 (Homo sapiens) (P29323 whole entry, the tested form may be a part): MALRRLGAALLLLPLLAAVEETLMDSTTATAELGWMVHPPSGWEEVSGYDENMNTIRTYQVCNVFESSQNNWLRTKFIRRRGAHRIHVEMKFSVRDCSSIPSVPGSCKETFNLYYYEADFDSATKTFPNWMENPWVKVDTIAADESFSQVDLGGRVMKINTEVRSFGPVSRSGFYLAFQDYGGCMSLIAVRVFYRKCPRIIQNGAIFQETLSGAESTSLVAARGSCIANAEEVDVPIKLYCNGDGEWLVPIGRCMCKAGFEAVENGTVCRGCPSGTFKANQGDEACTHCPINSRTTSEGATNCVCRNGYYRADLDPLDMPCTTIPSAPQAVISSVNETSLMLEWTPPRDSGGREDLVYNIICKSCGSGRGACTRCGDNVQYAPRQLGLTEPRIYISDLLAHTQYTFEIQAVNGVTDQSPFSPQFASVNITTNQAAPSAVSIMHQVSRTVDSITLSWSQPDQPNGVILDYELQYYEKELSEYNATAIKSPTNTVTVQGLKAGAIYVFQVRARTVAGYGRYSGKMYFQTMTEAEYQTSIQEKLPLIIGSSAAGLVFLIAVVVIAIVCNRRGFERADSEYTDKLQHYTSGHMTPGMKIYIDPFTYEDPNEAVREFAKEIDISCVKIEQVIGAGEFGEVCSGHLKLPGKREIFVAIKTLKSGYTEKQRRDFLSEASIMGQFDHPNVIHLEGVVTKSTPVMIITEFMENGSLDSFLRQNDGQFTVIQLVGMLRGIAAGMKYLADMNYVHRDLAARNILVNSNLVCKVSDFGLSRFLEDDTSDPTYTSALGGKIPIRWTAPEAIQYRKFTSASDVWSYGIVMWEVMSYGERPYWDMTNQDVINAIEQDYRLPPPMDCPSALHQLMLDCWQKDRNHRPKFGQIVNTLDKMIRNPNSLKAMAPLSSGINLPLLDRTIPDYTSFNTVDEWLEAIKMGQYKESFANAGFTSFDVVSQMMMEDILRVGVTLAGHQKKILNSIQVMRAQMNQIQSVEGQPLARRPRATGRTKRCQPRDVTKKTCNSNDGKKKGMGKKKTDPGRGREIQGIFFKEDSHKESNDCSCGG

[7] = Permeability in human Caco2 cells; format: ADME, cell-based; details: Caco-2, read-out: permeability
Cryptosporidium parvum = assay: Selectivity ratio of IC50 for Cryptosporidium parvum CDPK1 to IC50 for recombinant Cryptosporidium parvum FIKK
[8] = molecular target: Glycogen synthase kinase-3 beta (Homo sapiens) (UniProt P49841); assay: Inhibition of human GSK3beta (2 to 420 residues) assessed as residual activity at 500 nM in presence of 33P-ATP by filter binding assay relative to control
Sequence of Glycogen synthase kinase-3 beta (Homo sapiens) (P49841 whole entry, looked up, the tested form may be a part): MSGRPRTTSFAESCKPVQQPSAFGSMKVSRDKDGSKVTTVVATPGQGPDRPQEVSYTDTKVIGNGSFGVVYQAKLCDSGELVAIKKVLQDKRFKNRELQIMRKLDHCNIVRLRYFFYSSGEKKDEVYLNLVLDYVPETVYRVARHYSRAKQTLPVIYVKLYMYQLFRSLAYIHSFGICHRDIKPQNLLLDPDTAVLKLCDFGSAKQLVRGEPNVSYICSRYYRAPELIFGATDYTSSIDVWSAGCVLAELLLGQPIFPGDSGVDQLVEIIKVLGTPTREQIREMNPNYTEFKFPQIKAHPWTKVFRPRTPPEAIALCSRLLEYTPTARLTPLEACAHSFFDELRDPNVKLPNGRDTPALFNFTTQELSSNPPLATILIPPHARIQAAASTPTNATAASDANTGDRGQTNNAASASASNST

[9] = molecular target: Mitogen-activated protein kinase 11 (Homo sapiens) (UniProt Q15759); assay: Inhibition of human p38beta (1 to 364 residues) assessed as residual activity at 500 nM in presence of 33P-ATP by filter binding assay relative to control
Sequence of Mitogen-activated protein kinase 11 (Homo sapiens) (Q15759 whole entry, the tested form may be a part): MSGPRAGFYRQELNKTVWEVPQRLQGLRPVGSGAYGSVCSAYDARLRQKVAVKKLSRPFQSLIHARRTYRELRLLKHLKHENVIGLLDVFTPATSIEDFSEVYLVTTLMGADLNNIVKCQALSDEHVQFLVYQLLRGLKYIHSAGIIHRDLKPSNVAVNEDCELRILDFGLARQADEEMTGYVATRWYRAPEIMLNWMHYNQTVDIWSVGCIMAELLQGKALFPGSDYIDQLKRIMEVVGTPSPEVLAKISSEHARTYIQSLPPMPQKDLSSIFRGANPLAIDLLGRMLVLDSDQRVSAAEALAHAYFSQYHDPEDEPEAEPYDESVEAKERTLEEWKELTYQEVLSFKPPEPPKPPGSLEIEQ

[10] = molecular target: Serine/threonine-protein kinase SIK2 (Homo sapiens) (UniProt Q9H0K1); assay: Inhibition of human SIK2 (2 to 926 residues) assessed as residual activity at 500 nM in presence of 33P-ATP by filter binding assay relative to control
[11] = molecular target: Serine/threonine-protein kinase PAK 4 (Homo sapiens) (UniProt O96013); assay: Inhibition of human PAK4 (2 to 591 residues) assessed as residual activity at 500 nM in presence of 33P-ATP by filter binding assay relative to control
[12] = molecular target: Serine/threonine-protein kinase Chk1 (Homo sapiens) (UniProt O14757); assay: Inhibition of human CHK1 (1 to 476 residues) assessed as residual activity at 500 nM in presence of 33P-ATP by filter binding assay relative to control
[13] = molecular target: Mitogen-activated protein kinase kinase kinase 11 (Homo sapiens) (UniProt Q16584); assay: Inhibition of human MLK3 (96 to 386 residues) assessed as residual activity at 500 nM in presence of 33P-ATP by filter binding assay relative to control
[14] = molecular target: Protein-tyrosine kinase 6 (Homo sapiens) (UniProt Q13882); assay: Inhibition of human BRK (1 to 451 residues) assessed as residual activity at 500 nM in presence of 33P-ATP by filter binding assay relative to control
Sequence of Protein-tyrosine kinase 6 (Homo sapiens) (Q13882 whole entry, looked up, the tested form may be a part): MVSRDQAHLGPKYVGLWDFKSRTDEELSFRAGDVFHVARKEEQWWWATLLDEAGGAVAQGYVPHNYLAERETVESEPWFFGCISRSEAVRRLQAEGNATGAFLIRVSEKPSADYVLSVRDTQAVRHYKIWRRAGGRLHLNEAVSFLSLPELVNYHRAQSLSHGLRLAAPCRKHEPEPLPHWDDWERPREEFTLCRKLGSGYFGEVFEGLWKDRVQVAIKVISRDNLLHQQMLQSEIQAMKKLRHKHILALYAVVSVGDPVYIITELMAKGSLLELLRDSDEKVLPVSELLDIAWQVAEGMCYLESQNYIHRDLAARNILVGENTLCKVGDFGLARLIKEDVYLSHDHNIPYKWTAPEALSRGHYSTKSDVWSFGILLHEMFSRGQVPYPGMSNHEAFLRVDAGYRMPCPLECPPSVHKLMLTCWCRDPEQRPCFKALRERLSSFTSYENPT

[15] = molecular target: Ribosomal protein S6 kinase alpha-3 (Homo sapiens) (UniProt P51812); assay: Inhibition of human RSK2 assessed as residual activity at 500 nM in presence of 33P-ATP by filter binding assay relative to control
[16] = molecular target: Receptor-interacting serine/threonine-protein kinase 2 (Homo sapiens) (UniProt O43353); assay: Inhibition of human RIPK2 (2 to 311 residues) assessed as residual activity at 500 nM in presence of 33P-ATP by filter binding assay relative to control
Sequence of Receptor-interacting serine/threonine-protein kinase 2 (Homo sapiens) (O43353 whole entry, the tested form may be a part): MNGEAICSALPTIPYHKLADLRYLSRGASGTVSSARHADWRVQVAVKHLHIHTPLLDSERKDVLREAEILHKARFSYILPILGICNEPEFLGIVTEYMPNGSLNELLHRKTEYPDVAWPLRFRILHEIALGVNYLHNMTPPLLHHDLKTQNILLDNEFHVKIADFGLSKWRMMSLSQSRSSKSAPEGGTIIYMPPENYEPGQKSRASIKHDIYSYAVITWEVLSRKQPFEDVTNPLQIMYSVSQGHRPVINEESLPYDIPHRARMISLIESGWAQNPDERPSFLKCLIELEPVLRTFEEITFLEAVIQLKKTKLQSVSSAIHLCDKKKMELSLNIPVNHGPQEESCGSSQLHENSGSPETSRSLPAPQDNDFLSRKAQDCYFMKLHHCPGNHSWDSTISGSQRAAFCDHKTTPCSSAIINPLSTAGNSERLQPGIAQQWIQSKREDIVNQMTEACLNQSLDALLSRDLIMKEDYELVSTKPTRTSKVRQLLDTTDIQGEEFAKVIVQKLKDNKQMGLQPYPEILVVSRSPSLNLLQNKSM

[17] = molecular target: Dual specificity testis-specific protein kinase 1 (Homo sapiens) (UniProt Q15569); assay: Inhibition of human TESK1 (1 to 345 residues) assessed as residual activity at 500 nM in presence of 33P-ATP by filter binding assay relative to control
Sequence of Dual specificity testis-specific protein kinase 1 (Homo sapiens) (Q15569 whole entry, looked up, the tested form may be a part): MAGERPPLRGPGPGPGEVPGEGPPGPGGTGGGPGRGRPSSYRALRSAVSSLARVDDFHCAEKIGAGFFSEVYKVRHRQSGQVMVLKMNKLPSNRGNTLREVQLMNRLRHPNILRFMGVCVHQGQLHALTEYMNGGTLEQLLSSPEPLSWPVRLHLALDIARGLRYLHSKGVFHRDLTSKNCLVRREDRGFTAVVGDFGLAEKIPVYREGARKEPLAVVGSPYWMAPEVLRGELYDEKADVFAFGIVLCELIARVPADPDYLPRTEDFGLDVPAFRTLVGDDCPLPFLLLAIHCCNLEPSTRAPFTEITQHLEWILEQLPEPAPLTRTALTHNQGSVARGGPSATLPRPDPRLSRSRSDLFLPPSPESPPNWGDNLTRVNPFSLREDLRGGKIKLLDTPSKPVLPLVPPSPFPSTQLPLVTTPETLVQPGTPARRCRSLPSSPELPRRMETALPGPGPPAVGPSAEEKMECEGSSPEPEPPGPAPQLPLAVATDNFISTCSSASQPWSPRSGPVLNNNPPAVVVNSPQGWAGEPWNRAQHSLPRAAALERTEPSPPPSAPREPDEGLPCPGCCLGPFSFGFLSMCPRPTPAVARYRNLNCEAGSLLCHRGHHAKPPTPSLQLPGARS

[18] = molecular target: Serine/threonine-protein kinase WNK1 (Homo sapiens) (UniProt Q9H4A3); assay: Inhibition of human WNK1 (1 to 661 residues) assessed as residual activity at 500 nM in presence of 33P-ATP by filter binding assay relative to control
[19] = molecular target: Dual specificity mitogen-activated protein kinase kinase 6 (Homo sapiens) (UniProt P52564); assay: Inhibition of human MKK6 (2 to 334 residues) assessed as residual activity at 500 nM in presence of 33P-ATP by filter binding assay relative to control
Sequence of Dual specificity mitogen-activated protein kinase kinase 6 (Homo sapiens) (P52564 whole entry, the tested form may be a part): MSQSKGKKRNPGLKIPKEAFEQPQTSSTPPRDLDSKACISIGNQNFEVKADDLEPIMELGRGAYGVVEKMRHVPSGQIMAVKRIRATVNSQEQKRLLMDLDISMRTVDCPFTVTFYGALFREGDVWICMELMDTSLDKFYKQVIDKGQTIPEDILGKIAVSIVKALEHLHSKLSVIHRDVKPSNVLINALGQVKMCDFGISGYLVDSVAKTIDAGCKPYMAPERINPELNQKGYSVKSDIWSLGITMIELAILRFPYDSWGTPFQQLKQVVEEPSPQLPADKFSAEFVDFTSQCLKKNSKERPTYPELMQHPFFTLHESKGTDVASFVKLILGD

[20] = molecular target: Eukaryotic elongation factor 2 kinase (Homo sapiens) (UniProt O00418); assay: Inhibition of human EF2K (2 to 725 residues) assessed as residual activity at 500 nM in presence of 33P-ATP by filter binding assay relative to control
[21] = molecular target: Dual specificity mitogen-activated protein kinase kinase 2 (Homo sapiens) (UniProt P36507); assay: Inhibition of human MKK2 (2 to 400 residues) assessed as residual activity at 500 nM in presence of 33P-ATP by filter binding assay relative to control
[22] = molecular target: Serine/threonine-protein kinase 26 (Homo sapiens) (UniProt Q9P289); assay: Inhibition of human MST4 (1 to 416 residues) assessed as residual activity at 500 nM in presence of 33P-ATP by filter binding assay relative to control
[23] = molecular target: Rho-associated protein kinase 2 (Homo sapiens) (UniProt O75116); assay: Inhibition of human ROCK2 (2 to 543 residues) assessed as residual activity at 500 nM in presence of 33P-ATP by filter binding assay relative to control
[24] = molecular target: Vascular endothelial growth factor receptor 2 (Homo sapiens) (UniProt P35968); assay: Inhibition of VEGFR2 (unknown origin) assessed as residual activity at 500 nM relative to control
[25] = molecular target: Calcium/calmodulin-dependent protein kinase kinase 2 (Homo sapiens) (UniProt Q96RR4); assay: Inhibition of human CAMKKbeta (1 to 541 residues) assessed as residual activity at 500 nM in presence of 33P-ATP by filter binding assay relative to control
[26] = molecular target: SRSF protein kinase 1 (Homo sapiens) (UniProt Q96SB4); assay: Inhibition of human SRPK1 (2 to 654 residues) assessed as residual activity at 500 nM in presence of 33P-ATP by filter binding assay relative to control
[27] = molecular target: Myosin light chain kinase, smooth muscle (Homo sapiens) (UniProt Q15746); assay: Inhibition of human smMLCK (475 to 838 residues) assessed as residual activity at 500 nM in presence of 33P-ATP by filter binding assay relative to control

Which Activity [1] does the source give for `Cc1cccc(-c2nc(N)sc2-c2ccc3ncccc3n2)c1` here?
Its Activity is 128%.

What about the Activity [2] of the same compound?
The Activity was 120%.

What about the Activity [3] of the same compound?
The Activity was 80%.

What about the Activity [4] of the same compound?
The Activity was 119%.

And the Activity [5]?
Its Activity is 125%.

And the Activity [6]?
Its Activity is 95%.

What about the Papp [7] of the same compound?
Its Papp is 11 ×10⁻⁶ cm/s.

And the Ratio IC50 (Cryptosporidium parvum)?
Its Ratio IC50 is 940.

What about the Activity [8] of the same compound?
Its Activity is 112%.

And the Activity [9]?
The Activity was 80%.

What about the Activity [10] of the same compound?
Its Activity is 105%.

And the Activity [11]?
Its Activity is 106%.

What about the Activity [12] of the same compound?
Its Activity is 109%.

What about the Activity [13] of the same compound?
Its Activity is 101%.

What about the Activity [14] of the same compound?
Its Activity is 74%.

What about the Activity [15] of the same compound?
The Activity was 100%.

What about the Activity [16] of the same compound?
The Activity was 30%.

And the Activity [17]?
The Activity was 87%.

And the Activity [18]?
Its Activity is 107%.

What about the Activity [19] of the same compound?
The Activity was 96%.

And the Activity [20]?
The Activity was 115%.

What about the Activity [21] of the same compound?
Its Activity is 112%.

And the Activity [22]?
Its Activity is 113%.

What about the Activity [23] of the same compound?
Its Activity is 112%.

What about the Activity [24] of the same compound?
Its Activity is 41%.

And the Activity [25]?
The Activity was 124%.

And the Activity [26]?
Its Activity is 112%.

What about the Activity [27] of the same compound?
Its Activity is 104%.
